Assay results as given in patent US11945822B2, “Pyrazolo-triazine and/or pyrazolo-pxrimidine derivatives as selective inhibitor of cyclin dependent kinase” (QURIENT CO., LTD., priority 2018, dated 2024).

Assays:
[1] = target: T1, CDK2/Cyclin A (Homo sapiens, UniProt P24941); assay: Enzymatic assay for CDK2 (FRET based LANCE Ultra kinase assay); type: biochemical; conditions: read-out: CDK2 enzymatic activity (IC50 range)
T1 construct: purchased Invitrogen PV6290
Procedure: (§1) Enzymatic Binding Assay Protocol for CDK1, CDK2, CDK5 and CDK7
(§2) Inhibition activity of the respective compound on CDK kinase under Km value of ATP was tested in FRET based The LANCE® Ultra kinase assay (Perkin Elmer), which uses a ULight™-labeled peptide substrate and an appropriate Europium-labeled anti-phospho-antibody. Test compounds were made with DMSO solutions, and then 4-fold serial dilutions for 8 doses were prepared using automated liquid handler (POD810, LABCYTE) and 80 nL/well of diluted compound solutions were added into the 384-well plates (Greiner, Cat #784075). And then 68 nM of ULight-MBP peptide (Perkin Elmer, Cat #TRF0109-M) and 5 ul/well of ATP (Sigma, Cat #A7699) were added to the plate. After 1 min centrifugation at 1000 rpm, Purified CDKs/Cyclin complex were added following concentrations respectively. 24 uM for CDK1/Cyclin B (Invitrogen, Cat #PR4768C), 22 uM for CDK2/Cyclin A (Invitrogen, Cat #PV6290), 10 uM for CDK5/p25 (Invitrogen, Cat #PR8543B) and […] for CDK7/Cyclin H/MNAT1 (Invitrogen, Cat #PR6749B) were added to the each corresponding plate for CDK1, CDK2, CDK5 and CDK7. Incubate at 23° C. for 60 min and then Eu-labeled anti-phospho-Myelin Basic Protein (PE, Cat #TRF0201-M) and EDTA (Invitrogen, Cat #15575038) mixture in Lance Detection Buffer (Perkin Elmer, Cat #CR97100) was added in each well. After additional incubation at 23° C. for 60 min, test articles were measured the fluorescence using Envision leader (Perkin Elmer, USA) [Laser as excitation light; […] as the first and the second emission filter]. Data was analyzed using XL Fit software.

[2] = test system: MV4-11; assay: Cellular MV4-11 viability assay (CellTiter-Glo, 72 hours); type: cell-based; conditions: Homo sapiens
Procedure: (§3) All cell lines were routinely tested for mycoplasma.
(§4) The effect of the CDK7 inhibitor to inhibit the growth of target cancer cells was evaluated through the 72 hours time period of viability assay. Briefly, the candidate cell line ware plated in 96 well plate at the following density of cells respectively. […] DMSO solvent without compound served as a control and final DMSO concentration less than 0.1%. After 72 hours of incubation at 37° C., 5% CO2 incubator, cells were analyzed for the viability using the CellTiter-Glo Luminescent Cell Viability Assay (Promega, Cat #G7570). All viability assays were performed in duplicate and Luminescence was read using an Envision (Perkin Elmer, USA). Data was analyzed using XLfit software.

[3] = target: T2, CDK1/Cyclin B (Homo sapiens, UniProt P06493); assay: Enzymatic assay for CDK1 (FRET based LANCE Ultra kinase assay); type: biochemical; conditions: read-out: CDK1 enzymatic activity (IC50 range)
T2 construct: purchased Invitrogen PR4768C
T2 sequence (P06493 whole entry): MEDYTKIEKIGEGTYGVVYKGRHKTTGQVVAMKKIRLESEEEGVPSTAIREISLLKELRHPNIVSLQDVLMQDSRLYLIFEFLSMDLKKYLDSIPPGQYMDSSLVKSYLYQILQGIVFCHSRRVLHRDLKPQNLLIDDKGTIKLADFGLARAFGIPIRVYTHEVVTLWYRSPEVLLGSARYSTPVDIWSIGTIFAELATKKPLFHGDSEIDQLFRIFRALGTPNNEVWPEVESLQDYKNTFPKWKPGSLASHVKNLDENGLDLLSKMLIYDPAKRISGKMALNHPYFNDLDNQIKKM
T2 sequence (P14635 whole entry partner): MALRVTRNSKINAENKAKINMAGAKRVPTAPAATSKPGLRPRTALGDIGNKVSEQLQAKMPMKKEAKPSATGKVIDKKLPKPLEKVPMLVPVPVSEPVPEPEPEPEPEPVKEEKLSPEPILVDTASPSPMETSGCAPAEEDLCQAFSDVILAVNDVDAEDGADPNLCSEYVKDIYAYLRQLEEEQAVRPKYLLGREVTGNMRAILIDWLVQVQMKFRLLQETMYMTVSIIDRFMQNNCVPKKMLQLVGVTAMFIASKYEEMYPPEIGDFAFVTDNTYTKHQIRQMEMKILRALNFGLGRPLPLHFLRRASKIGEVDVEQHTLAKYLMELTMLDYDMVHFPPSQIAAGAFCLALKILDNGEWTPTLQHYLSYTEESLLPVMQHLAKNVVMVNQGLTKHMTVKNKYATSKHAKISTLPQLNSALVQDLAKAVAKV
Procedure: as §1, §2

[4] = test system: H460; assay: Cellular H460 viability assay (CellTiter-Glo, 72 hours); type: cell-based; conditions: Homo sapiens, NCI-H460
Procedure: as §3, §4

[5] = target: T3, CDK5/p25 (Homo sapiens, UniProt Q00535); assay: Enzymatic assay for CDK5 (FRET based LANCE Ultra kinase assay); type: biochemical; conditions: read-out: CDK5 enzymatic activity (IC50 range)
T3 construct: purchased Invitrogen PR8543B
T3 sequence (Q00535 whole entry): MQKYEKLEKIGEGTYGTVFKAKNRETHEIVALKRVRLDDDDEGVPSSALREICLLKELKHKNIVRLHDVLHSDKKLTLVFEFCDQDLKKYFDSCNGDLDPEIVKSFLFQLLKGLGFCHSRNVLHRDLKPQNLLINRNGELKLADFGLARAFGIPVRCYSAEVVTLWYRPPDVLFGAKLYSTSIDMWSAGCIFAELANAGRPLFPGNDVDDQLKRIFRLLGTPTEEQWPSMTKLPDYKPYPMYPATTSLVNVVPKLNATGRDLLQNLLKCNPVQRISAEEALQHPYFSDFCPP
T3 sequence (Q15078 99-307 partner limits assumed): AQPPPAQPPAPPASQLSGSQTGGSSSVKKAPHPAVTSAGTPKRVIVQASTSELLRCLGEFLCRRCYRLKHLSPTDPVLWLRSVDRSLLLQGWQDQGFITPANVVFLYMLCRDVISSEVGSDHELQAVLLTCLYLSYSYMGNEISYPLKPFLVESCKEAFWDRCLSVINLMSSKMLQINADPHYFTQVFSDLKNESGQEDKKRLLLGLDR
Procedure: as §1, §2

[6] = target: T4, CDK7/Cyclin H/MNAT1 (Homo sapiens, UniProt P50613); assay: Enzymatic assay for CDK7 (FRET based LANCE Ultra kinase assay); type: biochemical; conditions: for IC50: read-out: CDK7 enzymatic activity (IC50 range)
T4 construct: purchased Invitrogen PR6749B
T4 sequence (P50613 whole entry): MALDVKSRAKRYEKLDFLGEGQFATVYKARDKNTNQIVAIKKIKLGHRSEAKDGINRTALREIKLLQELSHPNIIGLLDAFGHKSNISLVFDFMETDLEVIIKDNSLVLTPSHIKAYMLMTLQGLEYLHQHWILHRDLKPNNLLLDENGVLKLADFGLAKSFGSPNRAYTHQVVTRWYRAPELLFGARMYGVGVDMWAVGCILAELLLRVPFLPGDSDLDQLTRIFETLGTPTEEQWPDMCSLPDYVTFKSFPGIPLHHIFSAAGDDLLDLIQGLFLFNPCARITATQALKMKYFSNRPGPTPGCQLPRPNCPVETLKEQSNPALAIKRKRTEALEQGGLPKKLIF
T4 sequence (P51946 whole entry partner): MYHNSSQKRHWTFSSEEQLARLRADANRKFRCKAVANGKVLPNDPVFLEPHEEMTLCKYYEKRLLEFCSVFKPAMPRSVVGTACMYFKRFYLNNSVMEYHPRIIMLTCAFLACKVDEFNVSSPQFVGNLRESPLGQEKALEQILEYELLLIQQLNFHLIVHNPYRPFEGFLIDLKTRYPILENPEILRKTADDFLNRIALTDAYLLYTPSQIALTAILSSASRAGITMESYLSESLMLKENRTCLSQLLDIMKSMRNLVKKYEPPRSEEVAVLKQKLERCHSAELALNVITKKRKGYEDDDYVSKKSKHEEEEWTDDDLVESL
T4 sequence (P51948 whole entry partner): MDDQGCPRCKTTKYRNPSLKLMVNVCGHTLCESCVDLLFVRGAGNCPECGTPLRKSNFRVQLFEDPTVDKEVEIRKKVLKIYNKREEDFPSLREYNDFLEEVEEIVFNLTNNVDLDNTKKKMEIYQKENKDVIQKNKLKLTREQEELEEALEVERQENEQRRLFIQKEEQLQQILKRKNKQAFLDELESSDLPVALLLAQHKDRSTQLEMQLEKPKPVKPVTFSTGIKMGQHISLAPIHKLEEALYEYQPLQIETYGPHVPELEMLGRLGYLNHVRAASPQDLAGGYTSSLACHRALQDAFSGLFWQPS
Procedure: as §1
Inhibition activity of the respective compound on CDK kinase under Km value of ATP was tested in FRET based The LANCE® Ultra kinase assay (Perkin Elmer), which uses a ULight™-labeled peptide substrate and an appropriate Europium-labeled anti-phospho-antibody. […] After 1 min centrifugation at 1000 rpm, Purified CDKs/Cyclin complex were added following concentrations respectively. […] Data was analyzed using XL Fit software.

[7] = test system: HCT116; assay: Cellular HCT116 viability assay (CellTiter-Glo, 72 hours); type: cell-based; conditions: Homo sapiens, HCT-116
Procedure: as §3, §4

Structure (SMILES) | IC50 [1] [nM] | IC50 [2] [nM] | IC50 [3] [nM] | IC50 [4] [nM] | IC50 [5] [nM] | CDK1/CDK7: Selectivity of CDK7 inhibition over CDK1 inhibition [6] | CDK2/CDK7: Selectivity of CDK7 inhibition over CDK2 inhibition [6] | CDK5/CDK7: Selectivity of CDK7 inhibition over CDK5 inhibition [6] | IC50 [6] [nM] | IC50 [7] [nM]
CC(C)c1cnn2c(NCc3ccccc3-c3ccc4ccccc4n3)nc(OCC3CCNCC3O)nc12 (centres unmarked) [Compound 218] | > 1000 | < 1000 | > 1000 | < 1000 | > 1000 | A (A=greater than 200 fold) | A (A=greater than 200 fold) | A (A=greater than 200 fold) | < 100 | < 1000
CC(C)c1cnn2c(NCc3ccccc3-c3ccc4ccccc4n3)nc(NCC(O)CCN)nc12 (racemic) [Compound 240] | > 1000 | < 1000 | > 1000 | < 1000 | > 1000 | A (A=greater than 200 fold) | A (A=greater than 200 fold) | A (A=greater than 200 fold) | < 100 | < 1000
CC(C)c1cnn2c(NCc3c(Cl)cccc3C(C)(C)O)nc(N3CCC(N)CC3)nc12 [Compound 239] | > 1000 | 1000 to 10000 | > 1000 | 1000 to 10000 | > 1000 | A (A=greater than 200 fold) | A (A=greater than 200 fold) | A (A=greater than 200 fold) | < 100 | 1000 to 10000
CC(C)c1cnn2c(NCc3ccccc3-c3ccc4ccccc4n3)nc(NCC3CCNCC3)nc12 [Compound 209] | > 1000 | < 1000 | > 1000 | < 1000 | > 1000 | A (A=greater than 200 fold) | A (A=greater than 200 fold) | A (A=greater than 200 fold) | < 100 | < 1000
CC(C)c1cnn2c(NCc3c(Cl)cccc3-n3ccc(C(C)(C)O)n3)nc(N3CCC(CN)CC3)nc12 [Compound 217] | > 1000 | < 1000 | > 1000 | < 1000 | > 1000 | A (A=greater than 200 fold) | A (A=greater than 200 fold) | A (A=greater than 200 fold) | < 100 | < 1000
CC(C)c1cnn2c(NCc3ccccc3-n3cc(N4CCN(C)CC4)cn3)nc(N3CCC(N)CC3)nc12 [Compound 179] | 100 to 1000 | < 1000 | 100 to 1000 | < 1000 | 100 to 1000 | B (B=less than 200 fold, but greater than 20 fold) | B (B=less than 200 fold, but greater than 20 fold) | B (B=less than 200 fold, but greater than 20 fold) | < 100 | < 1000
CC(C)c1cnn2c(NCc3ccccc3-n3cc4cc(O)ccc4n3)nc(N3CCC(N)CC3)nc12 [Compound 159] | 100 to 1000 | < 1000 | > 1000 |  | 100 to 1000 | A (A=greater than 200 fold) | B (B=less than 200 fold, but greater than 20 fold) | B (B=less than 200 fold, but greater than 20 fold) | < 100 | < 1000
Cc1ccc(CNc2nc(N3CCC(N)CC3)nc3c(C(C)C)cnn23)c(-c2cc3ccccc3[nH]2)c1 [Compound 191] | 100 to 1000 | < 1000 | 100 to 1000 | < 1000 | 100 to 1000 | B (B=less than 200 fold, but greater than 20 fold) | B (B=less than 200 fold, but greater than 20 fold) | B (B=less than 200 fold, but greater than 20 fold) | < 100 | 
CC(C)c1cnn2c(NCc3ccccc3-n3cc4cc(NS(C)(=O)=O)ccc4n3)nc(N3CCC(N)CC3)nc12 [Compound 158] | 100 to 1000 | < 1000 | 100 to 1000 |  | < 100 | B (B=less than 200 fold, but greater than 20 fold) | B (B=less than 200 fold, but greater than 20 fold) | B (B=less than 200 fold, but greater than 20 fold) | < 100 | < 1000
CC(C)c1cnn2c(NCc3cccc4ccncc34)nc(N3CCC(N)CC3)nc12 [Compound 31] | < 100 |  | 100 to 1000 | < 1000 | < 100 | B (B=less than 200 fold, but greater than 20 fold) | B (B=less than 200 fold, but greater than 20 fold) | C (C=less than 20 fold) | < 100 | < 1000
CC(C)c1cnn2c(NCc3ccccc3-n3cccn3)nc(-c3cccc(N4CCNCC4)c3)nc12 [Compound 167] | > 1000 | < 1000 | > 1000 | < 1000 | 100 to 1000 | A (A=greater than 200 fold) | B (B=less than 200 fold, but greater than 20 fold) | B (B=less than 200 fold, but greater than 20 fold) | < 100 | 
CC(C)c1cnn2c(NCc3ccccc3-n3cccn3)nc(Nc3cccc(OC4CCNC4)c3)nc12 (racemic) [Compound 164] | > 1000 | 1000 to 10000 | > 1000 |  | > 1000 | B (B=less than 200 fold, but greater than 20 fold) | B (B=less than 200 fold, but greater than 20 fold) | B (B=less than 200 fold, but greater than 20 fold) | < 100 | 
Cc1ccc(-c2cc3ccccc3[nH]2)c(CNc2nc(N3CCC(N)CC3)nc3c(C(C)C)cnn23)c1 [Compound 190] | > 1000 | 1000 to 10000 | > 1000 | 1000 to 10000 | > 1000 | A (A=greater than 200 fold) | A (A=greater than 200 fold) | B (B=less than 200 fold, but greater than 20 fold) | < 100 | 
CC(C)c1cnn2c(NCc3ccccc3-n3cccn3)nc(-c3cccc(C4CCNCC4)c3)nc12 [Compound 165] | > 1000 | < 1000 | > 1000 | < 1000 | 100 to 1000 | A (A=greater than 200 fold) | B (B=less than 200 fold, but greater than 20 fold) | B (B=less than 200 fold, but greater than 20 fold) | < 100 | 
